For one data set, the system named is Hela. Briefly: Cell growth IC50, screening of AOH1160 analogs. Format: cell-based. The conditions noted are these: Homo sapiens, HeLa; read-out: IC50 values. On the procedure:
(§1) FIG. 29. IC50 data for select compounds. The indicated cell lines were seeded at 10^4 cells per well in a 96 well plate. After allowing to attach to the plate overnight, cells were treated with various concentrations of the indicated compounds in triplicates for 72 hrs. The cell growth was measured by an SRB assay. The cell abundances under each treatment condition relative to the baseline were averaged and graphed ±S.D. The baseline is defined as the median value of the cell abundances under the treatment by the two lowest compound concentrations. The IC50 was calculated by the Prism program.

The subject of a further data set is MDA-MB-468. Briefly: Cell growth IC50, screening of AOH1160 analogs. The conditions noted are these: Homo sapiens, MDA-MB-468; read-out: IC50 values. Type of data set: cell-based. Here is the method:
as §1

For another data set, the system named is SK-MEL-28. The data set can be described thus: Cell growth IC50, screening of AOH1160 analogs. Format: cell-based. The conditions noted are these: Homo sapiens. On the procedure: as §1
Another data set relates to SK-MEL-5. The data set can be described thus: Cell growth IC50, screening of AOH1160 analogs. Format: cell-based. The conditions noted are these: Homo sapiens. On the procedure: as §1
The next data set deals with SK-N-AS. The data set can be described thus: Cell growth IC50, screening of AOH1160 analogs. Type of data set: cell-based. The note with it: Homo sapiens, read-out: IC50 values. Here is the method: as §1
A further data set concerns SK-N-BE(2)c. The data set can be described thus: Cell growth IC50, screening of AOH1160 analogs. Type of data set: cell-based. The note with it: Homo sapiens. Here is the method:
as §1

Another data set relates to SK-N-DZ. Briefly: Cell growth IC50, screening of AOH1160 analogs. Format: cell-based. The conditions noted are these: Homo sapiens. On the procedure:
as §1

For data set [1] the following is noted: oral, 40 mg/kg, mice (Gu et al., 2018); cited from earlier work.
A short description of data set [2]: Cell growth IC50, screening of AOH1160 analogs (cell line not given). Format: cell-based. On the procedure:
as §1

In another data set the target is T1, PCNA (Homo sapiens, UniProt P12004).
T1 construct: made in house; host or cells: E. coli Rosetta 2 (DE3)
T1 sequence (P12004 whole entry): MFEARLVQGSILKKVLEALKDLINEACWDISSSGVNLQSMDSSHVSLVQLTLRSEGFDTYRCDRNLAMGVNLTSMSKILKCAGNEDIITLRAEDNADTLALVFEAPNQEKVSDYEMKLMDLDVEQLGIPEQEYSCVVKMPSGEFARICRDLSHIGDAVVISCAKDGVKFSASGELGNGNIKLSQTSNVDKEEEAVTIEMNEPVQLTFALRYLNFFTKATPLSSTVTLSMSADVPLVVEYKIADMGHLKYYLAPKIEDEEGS
Briefly: Thermal denaturation (thermal shift) assay. Format: binding. The note with it: 9 μM PCNA; 10 or 30 μM compound; dose dependent. On the procedure:
FIGS. 1A-1E. AOH1160 analog interactions with PCNA. FIG. 1A: Thermal shift assay: Normalized inverse derivative thermal denaturation plots of 9 μM apo-PCNA with DMSO control is depicted with a black dashed line and PCNA in the presence of 10 μM AOH1160LE is shown in light grey and 30 μM AOH1160LE in dark grey. ΔTm values are provided. FIG. 1B: As described in FIG. 1A, in the presence of 10 μM AOH1996 depicted in light grey and 30 μM AOH1996 depicted in dark grey. FIG. 1C: Four monomers (chains A-D) of PCNA are present in the asymmetric unit of the crystal. Chains A, B, and C form the homotrimer biological unit, while chain Dis orientated perpendicular to the plane of the ring, below the interface of chains B and C and it belongs to an adjacent ring. Inset: Three molecules of AOH1160LE bind in and adjacent to the PIP box cavity of each of the PCNA ring subunits. The omit map, gray mesh, is contoured to 1.56. Two PCNA monomer subunits from adjacent rings stack against each other, placing the PIP box and IDCLs of each subunit in opposing directions. FIG. 1D: The three AOH1160LE molecules are shown as stick figure representations. Two of the compounds, left and central, bind into the PIP box cavity at known PCNA-partner/compound interaction sites. […] The electrostatic surface maps are depicted with Poisson-Boltzmann electrostatic surface potentials shown in dark grey and light grey, corresponding to −10 to +10 kT/e respectively.
Targeting the PIP box and APIM binding domain of PCNA. AOH1160, a small molecule PCNA ligand, targets the cancer-distinct L126-Y133 region of PCNA (Malkas et al., 2006) and is selectively toxic to cancer cells (Gu et al., 2018). […]
Thermal denaturation assay for PCNA-AOH1996 interaction. […] Fluorescence intensity was measured within the excitation/emission ranges 470-505/540-700 nm.

Data set [3] is described as follows: Solubility in aqueous buffer with 10% DMSO. Type of data set: physicochemical. The note with it: pH 7.4, aqueous with cosolvent or surfactant or cyclodextrin, read-out: soluble at concentration. On the procedure: AOH1160LE was soluble at a 4 mM concentration in aqueous buffer with 10% DMSO, which enabled co-crystallization studies on this analog. A PCNA:AOH1160LE co-crystal diffracted to 2.85 Å resolution at the synchrotron source, and phasing was provided by molecular replacement. Four PCNA subunits were present in the asymmetric unit, with three, chains A, B, C belonging to the homotrimeric ring structure, and the fourth, chain D (FIG. 1C) forms part of an adjacent ring in the unit cell that consists solely of D chains. Packing within the unit cell also places each monomer subunit of the PCNA ring against a subunit from another ring; these two stacked subunits interact via their PIP box binding pockets and […] IDCLs that are orientated in directly opposing directions (FIG. 1D). Clearly observed within the electron density maps are three molecules of AOH1160LE, which bind in and adjacent to the PIP box cavity of each of the PCNA ring subunits, and these compounds have further interactions with the PIP box pocket of the stacked PCNA subunit (FIG. 1D).
Expression, purification and crystallization of PCNA. Human PCNA in a pET22b-hPCNA vector was transformed into E. coli Rosetta 2 (DE3) cells. PCNA expression was induced by 0.4 mM IPTG, OD600=0.6, and cells were grown for 5 hrs at 37° C. […]

A further data set has as its system SH-SY5Y. Briefly: Cell growth IC50, screening of AOH1160 analogs. Format: cell-based. The conditions noted are these: Homo sapiens. Here is the method:
as §1

The subject of the next data set is SK-N-FI. Briefly: Cell growth IC50, screening of AOH1160 analogs. Type of data set: cell-based. The note with it: Homo sapiens. Here is the method: as §1
In the next data set the test system is MDA-MB-231. Briefly: Cell growth IC50, screening of AOH1160 analogs. Type of data set: cell-based. The conditions noted are these: Homo sapiens. Here is the method: as §1
The next data set concerns OVCAR8. The data set can be described thus: Cell growth IC50, screening of AOH1160 analogs. Type of data set: cell-based. The conditions noted are these: Homo sapiens, OVCAR-8; OVCAR8; read-out: IC50 values. On the procedure:
as §1

Converted amounts (≈) assume the structure as drawn. Like-named read-outs stand apart in the source and are kept apart here.

Regarding `O=C(CNC(=O)c1cccc2ccccc12)Nc1ccccc1Sc1ccccc1` [AOH1160S, N-(2-oxo-2-((2-(phenylthio)phenyl)amino)ethyl)-1-naphthamide], the IC50 (commonly the concentration at which inhibition is half-maximal) in the data set on Hela came out at 290 nM; in the data set on MDA-MB-468, 316 nM; in the data set with SK-MEL-28, 340 nM; in the data set with SK-MEL-5, 610 nM.

Regarding `O=C(CNC(=O)c1cccc2ccccc12)Nc1ccccc1Oc1ccccc1` [AOH1160], the IC50 in the data set on SK-N-AS came to 107 nM; with SK-N-BE(2)c it was 325 nM; in the data set on SK-N-DZ it was 237 nM. Also, the half-life – broadly, the time in which the quantity being followed falls by half – in data set [1] was 3.4 h.

For the molecule `O=C(O)CC[C@H](NC(=O)c1cccc2ccccc12)C(=O)Nc1ccccc1Oc1ccccc1` [AOH1160LE], in data set [2] (read-out: IC50 values), the IC50 was above 10000 nM. The “shift of protein melting curves (ΔTm)” value on PCNA was at most 0.5 °C. Besides, the solubility in data set [3] was 4 mM (≈ 1870 µg/mL).

For the molecule `C[C@H](NC(=O)c1cccc2ccccc12)C(=O)Nc1ccccc1Oc1ccccc1` [AOH1160LA, (S)—N-(1-oxo-1-((2-phenoxyphenyl)amino)propan-2-yl)-1-naphthamide], the IC50 with MDA-MB-468 was 4900 nM; with SH-SY5Y, 4000 nM; in the data set with SK-N-FI, 3000 nM; in [2] (FIG. 25, read-out: IC50), around 3000 nM.

Consider `O=C(CNC(=O)c1cccc2ccccc12)Nc1ccccc1Sc1ccccc1F` [AOH1996S-2F, N-(2-((2-((2-fluorophenyl)thio)phenyl)amino)-2-oxoethyl)-1-naphthamide], for which the values for the IC50 with MDA-MB-231 and with OVCAR8 were 220 nM and 410 nM, respectively.

Source of the values: US20250171404A1, “PCNA INHIBITORS AND USES THEREOF” (CITY OF HOPE, priority 2022, published 2025).
